According to BindingDB's records for patent US10781211 (LUNDBECK LA JOLLA RESEARCH CENTER, INC., 2020):

Target: T1, Monoglyceride lipase (Homo sapiens, UniProt Q99685)
T1 sequence (Q99685 whole entry): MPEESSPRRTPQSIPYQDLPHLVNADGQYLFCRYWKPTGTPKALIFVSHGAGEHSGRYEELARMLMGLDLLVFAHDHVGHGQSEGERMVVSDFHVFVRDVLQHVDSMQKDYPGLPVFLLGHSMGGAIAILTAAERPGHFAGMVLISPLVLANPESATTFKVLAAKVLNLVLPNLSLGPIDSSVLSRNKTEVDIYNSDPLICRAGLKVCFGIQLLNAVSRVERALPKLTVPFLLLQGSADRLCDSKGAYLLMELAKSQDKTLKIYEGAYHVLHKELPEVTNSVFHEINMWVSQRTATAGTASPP
Test: In Vitro Competitive Activity-Based Protein Profiling Assay
Experimental: Human: Proteomes (human prefrontal cortex or cell membrane fractions) (50 μL, 1.0-2.0 mg/mL total protein concentration) were preincubated with varying concentrations of inhibitors at 37° C. After 30 min, FP-Rh or JW912 (1.0 μL, 50 μM in DMSO) was added and the mixture was incubated for another 30 min at room temperature. Reactions were quenched with SDS loading buffer (15 μL-4X) and run on SDS-PAGE.

IC50 [nM]	SMILES
< 100	O=C(OC(C(F)(F)F)C(F)(F)F)N1CCC2(CCN(Cc3cc(N4CCOCC4)cc(C(F)(F)F)c3)C2)CC1 [US10781211, Example 277]
< 100	O=C(OC(C(F)(F)F)C(F)(F)F)N1CCC2(CCN(Cc3ccc(N4CCCCC4)c(C(F)(F)F)c3)C2)CC1 [US10781211, Example 228]
< 100	CC1CN(c2cc(CN3CCC4(CCN(C(=O)OC(C(F)(F)F)C(F)(F)F)CC4)C3)cc(C(F)(F)F)c2)CCO1 (configuration not stated) [US10781211, Example 252]
< 100	CC1CCCN(c2cc(CN3CCCC34CCN(C(=O)OC(C(F)(F)F)C(F)(F)F)CC4)cc(C(F)(F)F)c2)C1 (configuration not stated) [US10781211, Example 221]
< 100	O=C(OC(C(F)(F)F)C(F)(F)F)N1CCC2(CCCN2Cc2ccc(C(F)(F)F)cc2CN2CCCC2)CC1 [US10781211, Example 262]
< 100	CC1CCCN(c2cc(C(F)(F)F)ccc2CN2CCC3(CCN(C(=O)OC(C(F)(F)F)C(F)(F)F)CC3)C2)C1 (configuration not stated) [US10781211, Example 216]
< 100	O=C(OC(C(F)(F)F)C(F)(F)F)N1CCC2(CCCN2Cc2cc(F)cc(N3CCCCC3)c2)CC1 [US10781211, Example 236]
< 100	CC1CCN(c2cc(CN3CCC4(CCN(C(=O)OC(C(F)(F)F)C(F)(F)F)CC4)C3)cc(C(F)(F)F)c2)C1 (configuration not stated) [US10781211, Example 229]
< 100	O=C(OC(C(F)(F)F)C(F)(F)F)N1CCC2(CCCN2Cc2cc(CN3CCCCC3)cc(OC(F)(F)F)c2)CC1 [US10781211, Example 269]
< 100	O=C(OC(C(F)(F)F)C(F)(F)F)N1CCC2(CCN(Cc3cc(Cl)cc(N4CCCCC4)c3)C2)CC1 [US10781211, Example 232]
< 100	O=C(OC(C(F)(F)F)C(F)(F)F)N1CCC2(CCCN2Cc2cc(N3CCCC3)cc(C(F)(F)F)c2)CC1 [US10781211, Example 203]
< 100	O=C(OC(C(F)(F)F)C(F)(F)F)N1CCC2(CCN(Cc3ccc(S(F)(F)(F)(F)F)cc3N3CCCCC3)C2)CC1 [US10781211, Example 241]
< 100	O=C(OC(C(F)(F)F)C(F)(F)F)N1CCC2(CCN(Cc3cc(F)cc(N4CCCCC4)c3)C2)CC1 [US10781211, Example 233]
< 100	O=C(OC(C(F)(F)F)C(F)(F)F)N1CCC2(CCCN2Cc2cc(N3CCOCC3)cc(C(F)(F)F)c2)CC1 [US10781211, Example 204]
< 100	O=C(OC(C(F)(F)F)C(F)(F)F)N1CCC2(CCN(Cc3cc(CN4CCCCC4)cc(C(F)(F)F)c3)C2)CC1 [US10781211, Example 245]
< 100	O=C(OC(C(F)(F)F)C(F)(F)F)N1CCC2(CCCN2Cc2cc(CN3CCCC3)cc(OC(F)(F)F)c2)CC1 [US10781211, Example 270]
< 100	O=C(OC(C(F)(F)F)C(F)(F)F)N1CCC2(CCN(Cc3ccc(C(F)(F)F)cc3N3CCCC3)C2)CC1 [US10781211, Example 201]
< 100	CC1CCN(c2cc(C(F)(F)F)ccc2CN2CCC3(CCN(C(=O)OC(C(F)(F)F)C(F)(F)F)CC3)C2)C1 (configuration not stated) [US10781211, Example 219]
< 100	O=C(OC(C(F)(F)F)C(F)(F)F)N1CCC2(CCN(Cc3ccc(C(F)(F)F)c(N4CCCCC4)c3)C2)CC1 [US10781211, Example 234]
< 100	O=C(OC(C(F)(F)F)C(F)(F)F)N1CCC2(CCCN2Cc2cc(N3CCCCC3)cc(S(F)(F)(F)(F)F)c2)CC1 [US10781211, Example 263]
< 100	O=C(OC(C(F)(F)F)C(F)(F)F)N1CCC2(CCN(Cc3cc(N4CCCC4)cc(C(F)(F)F)c3)C2)CC1 [US10781211, Example 202]
< 100	O=C(OC(C(F)(F)F)C(F)(F)F)N1CCC2(CCCN2Cc2cc(CN3CCCCC3)cc(C(F)(F)F)c2)CC1 [US10781211, Example 244]
